The molecules below were run against MCH receptor (Homo sapiens, UniProt Q99705) (assay: High throughput functional screening FLIPR/FDSS6000: inhibition of MCH-evoked intracellular Ca2+ changes). Details: class by percent of control at 10^-7 M or IC50.
Type: cell-based
Procedure, shortened: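 Cells expressing constitutively active MCH receptor, loaded with 4 μM Fluo4-AM for 1 h at 37 °C, were pretreated 3 min with compound, then challenged with MCH (50 nM for antagonist testing). MCH-evoked [Ca2+]i transients followed by FLIPR or FDSS (ex 488/em 530 nm) over 290 s.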
With COc1cc(NC(=S)NC[C@H]2CC[C@@H](Nc3nc(N(C)C)c4ccccc4n3)CC2)c(OC)cc1Cl [compound 794] the class was 3 (Class 3: The value of percent of control at 10^−7 M was more than 60% or the value of IC50 was more than 200 nM.).
C=C(C)CNC(=S)NC[C@H]1CC[C@@H](Nc2nc(N(C)C)c3ccccc3n2)CC1 [compound 608] was tested, and the class was 3 (Class 3: The value of percent of control at 10^−7 M was more than 60% or the value of IC50 was more than 200 nM.).
With CCOC(=O)CNC(=O)NC[C@H]1CC[C@@H](Nc2nc(N(C)C)c3ccccc3n2)CC1 [compound 429] the class was 3 (Class 3: The value of percent of control at 10^−7 M was more than 60% or the value of IC50 was more than 200 nM.).
In the case of CCCNC(=S)NC[C@H]1CC[C@@H](Nc2nc(N(C)C)c3ccccc3n2)CC1 [compound 617], the class is reported as 3 (Class 3: The value of percent of control at 10^−7 M was more than 60% or the value of IC50 was more than 200 nM.).
In the case of CN(C)c1nc(N[C@H]2CC[C@@H](CNC(=S)Nc3ccc(SC(F)(F)F)cc3)CC2)nc2ccccc12 [compound 656], the class is reported as 3 (Class 3: The value of percent of control at 10^−7 M was more than 60% or the value of IC50 was more than 200 nM.).
For CN(C)c1nc(N[C@H]2CC[C@@H](CNC(=S)NCc3ccccc3F)CC2)nc2ccccc12 [compound 724], the class was 3 (Class 3: The value of percent of control at 10^−7 M was more than 60% or the value of IC50 was more than 200 nM.).
With CCc1cccc(C(C)C)c1NC(=O)NC[C@H]1CC[C@@H](Nc2nc(N(C)C)c3ccccc3n2)CC1 [compound 493, N-[(cis-4-{[4-(dimethylamino)quinazolin-2-yl]amino}cyclohexyl)methyl]-N′-(2-ethyl-6-isopropylphenyl)urea] the class was 1 (Class 1: The value of percent of control at 10^−7 M was less than 40% or the value of IC50 was less than 50 nM.).
With Cc1ccccc1CNC(=O)NC[C@H]1CC[C@@H](Nc2nc(N(C)C)c3ccccc3n2)CC1 [compound 510, N-[(cis-4-{[4-(dimethylamino)quinazolin-2-yl]amino}cyclohexyl)methyl]-N′-(2-methylbenzyl)urea] the class was 2 (Class 2: The value of percent of control at 10^−7 M was from 40% to 60% or the value of IC50 was from 50 nM to 200 nM.).
For CN(C)c1nc(N[C@H]2CC[C@@H](CNC(=O)Nc3ccc(C(C)(C)C)cc3)CC2)nc2ccccc12 [compound 765], the class was 3 (Class 3: The value of percent of control at 10^−7 M was more than 60% or the value of IC50 was more than 200 nM.).
With CCc1cccc(C)c1NC(=S)NC[C@H]1CC[C@@H](Nc2nc(N(C)C)c3ccccc3n2)CC1 [compound 679] the class was 2 (Class 2: The value of percent of control at 10^−7 M was from 40% to 60% or the value of IC50 was from 50 nM to 200 nM.).
CN(C)c1nc(N[C@H]2CC[C@@H](CNC(=S)Nc3cc(F)ccc3F)CC2)nc2ccccc12 [compound 591] was tested, and the class was 3 (Class 3: The value of percent of control at 10^−7 M was more than 60% or the value of IC50 was more than 200 nM.).
With CN(C)c1nc(N[C@H]2CC[C@@H](CNC(=S)Nc3cccc(SC(F)(F)F)c3)CC2)nc2ccccc12 [compound 646] the class was 3 (Class 3: The value of percent of control at 10^−7 M was more than 60% or the value of IC50 was more than 200 nM.).
With CC(C)c1ccccc1NC(=S)NC[C@H]1CC[C@@H](Nc2nc(N(C)C)c3ccccc3n2)CC1 [compound 680, N-[(cis-4-{[4-(dimethylamino)quinazolin-2-yl]amino}cyclohexyl)methyl]-N′-(2-isopropylphenyl)thiourea] the class was 2 (Class 2: The value of percent of control at 10^−7 M was from 40% to 60% or the value of IC50 was from 50 nM to 200 nM.).
In the case of CN(C)c1nc(N[C@H]2CC[C@@H](CNC(=O)Nc3ccccc3Oc3ccccc3)CC2)nc2ccccc12 [compound 514, N-[(cis-4-{[4-(dimethylamino)quinazolin-2-yl]amino}cyclohexyl)methyl]-N′-(2-phenoxyphenyl)urea], the class is reported as 2 (Class 2: The value of percent of control at 10^−7 M was from 40% to 60% or the value of IC50 was from 50 nM to 200 nM.).
In the case of CN(C)c1nc(N[C@H]2CC[C@@H](CNC(=S)Nc3ccc(OCc4ccccc4)cc3)CC2)nc2ccccc12 [compound 690], the class is reported as 3 (Class 3: The value of percent of control at 10^−7 M was more than 60% or the value of IC50 was more than 200 nM.).
In the case of CN(C)c1nc(N[C@H]2CC[C@@H](CNC(=S)Nc3ccc(I)cc3)CC2)nc2ccccc12 [compound 661], the class is reported as 3 (Class 3: The value of percent of control at 10^−7 M was more than 60% or the value of IC50 was more than 200 nM.).

Same assay, conditions: class by percent of control at 10^-7 M or by IC50; read-out: class
CN(C)c1nc(N[C@H]2CC[C@@H](NC(=O)Nc3cc(F)cc(C(F)(F)F)c3)CC2)nc2ccccc12 [compound 133] was tested, and the IC50 was greater than 200 nM.
Molecule CN(C)c1ccc(NC(=S)NC[C@H]2CC[C@@H](Nc3nc(N(C)C)c4ccccc4n3)CC2)cc1 [compound 806] has an IC50 greater than 200 nM.
Work on Cc1cccc(NC(=O)N[C@H]2CC[C@@H](Nc3nc(N(C)C)c4ccccc4n3)CC2)c1C [compound 27, N-(cis-4-{[4-(dimethylamino)quinazolin-2-yl]amino}cyclohexyl)-N′-(2,3-dimethylphenyl)urea] yielded an IC50 of less than 50 nM.

Same assay, conditions: class by percent of control at 10^−7 M or by IC50; read-out: class
Molecule COc1ccc(CN[C@@H]2CC[C@H](Nc3nc(N(C)C)c4ccccc4n3)C2)c(OC)c1 [Example 1044, N2-{(1S,3R)-3-[(2,4-dimethoxybenzyl)amino]cyclopentyl}-N4,N4-dimethylquinazoline-2,4-diamine] has an IC50 greater than 200 nM.
For CN(C)c1nc(N[C@H]2CC[C@@H](NC(=O)CN(C)c3ccccc3)CC2)nc2ccccc12 [Example 1088, N-(cis-4-{[4-(dimethylamino)quinazolin-2-yl]amino}cyclohexyl)-N2-methyl-N2-phenylglycinamide], the IC50 was less than 50 nM.
For CN(C)c1nc(N[C@H]2CC[C@@H](NC(=O)c3cccc(C(F)(F)F)c3)CC2)nc2cc(F)c(F)cc12 [Example 1210, N-(cis-4-{[4-(dimethylamino)-6,7-difluoroquinazolin-2-yl]amino}cyclohexyl)-3-(trifluoromethyl)benzamide], the IC50 was less than 50 nM.
CN(C)c1nc(N[C@H]2CC[C@@H](C(=O)NCc3ccc(F)cc3Cl)CC2)nc2ccccc12 [Example 1182, cis-N-(2-chloro-4-fluorobenzyl)-4-{[4-(dimethylamino)quinazolin-2-yl]amino}cyclohexanecarboxamide] was tested, and the IC50 was less than 50 nM.
COc1cc(OC)cc(Oc2ncccc2C(=O)N[C@H]2CC[C@@H](Nc3nc(N(C)C)c4ccccc4n3)CC2)c1 [Example 1039, 2-(3,5-dimethoxyphenoxy)-N-(cis-4-{[4-(dimethylamino)quinazolin-2-yl]amino}cyclohexyl)nicotinamide] showed an IC50 of less than 50 nM.
CN(C)c1nc(NC[C@@H]2CC[C@H](NC(=O)c3cccc(F)c3)C2)nc2ccccc12 [Example 1132, N-[(1S,3R)-3-({[4-(dimethylamino)quinazolin-2-yl]amino}methyl)cyclopentyl]-3-fluorobenzamide] showed an IC50 greater than 200 nM.
Cc1ccc(CNC(=O)[C@H]2CC[C@@H](Nc3nc(N(C)C)c4ccccc4n3)CC2)cc1F [Example 1143, cis-4-{[4-(dimethylamino)quinazolin-2-yl]amino}-N-(3-fluoro-4-methylbenzyl)cyclohexanecarboxamide] showed an IC50 of 50 to 200 nM.
CN(C)c1nc(N[C@H]2CC[C@@H](CNC(=O)Nc3ccc(Cl)cc3Cl)CC2)nc2ccccc12 [Example 1029, N-(2,4-dichlorophenyl)-N′-[(cis-4-{[4-(dimethylamino)quinazolin-2-yl]amino}cyclohexyl)methyl]urea] showed an IC50 of 50 to 200 nM.
